Test results reported in publication PMC12888856 (Antimicrobial Agents and Chemotherapy, 2025).

Assays:
Assay type in all cases: cell-based, Influenza A virus
A/Malaya/302/1954 (H1N1) = assay: microbe, parasite or virus in culture; conditions: read-out: EC50
[1] = tested on: Baloxavir-resistant A/Puerto Rico/8/1934 (PA I38T)
[2] = tested on: Oseltamivir-resistant A/Weiss/1943 (NA H275Y)

Row | Structure (SMILES) | EC50 (A/Malaya/302/1954 (H1N1)) [nM] | EC50 [1] [nM] | EC50 [2] [nM] | Fold shift [1] | Fold shift [2]
1 | O=C1c2c(O)c(=O)ccn2N([C@@H]2c3ccccc3SCc3c2ccc(F)c3F)[C@@H]2COCCN12 [Baloxavir, baloxavir, reference compound] | 1.1 | 105 | 0.42 | – | –
2 | CCOC(=O)C1=C[C@@H](OC(CC)CC)[C@H](NC(C)=O)[C@@H](N)C1 [Oseltamivir, oseltamivir, reference compound] | 1150 | 2810 | > 78400 | 2.89 | >74.66
3 | COC[C@@]1(C)COC[C@@H](COc2ccc(-c3cc(C(N)=O)c(O)nc3C(F)(F)F)cc2)O1 [VNT-101] | > 50000 | – | 118 | – | –
